Measurements: publication PMC9122598, “NASP maintains histone H3–H4 homeostasis through two distinct H3 binding modes” (Nucleic Acids Research, 2022)
Entries after “also recorded” stand apart in the source; their conditions may differ.

How the values were obtained:
Assay type in all cases: cell-based, human
[1] = test system: soluble histone H3–H4 pool; assay: Soluble histone pool in HCT116 NASP-dTAG cells (western blot of soluble extracts); conditions: 5 μM dTAG-13 48 h, complementation with DOX-induced sNASP
Protocol: Unless stated otherwise cells were grown in DMEM with Glutamax (35050061, Gibco), 10% FBS (12389802, Hyclone) and 1% penicillin/streptomycin (15140122, Gibco) at 37°C with 5% CO2. HeLa S3 and HCT116 pLVX-TetOne-Puro cell lines were grown under Puromycin selection (1 μg/ml, P8833, Sigma). In Hela S3 and HCT116 pLVX-TetOne-Puro, the expression of sNASP-TwinStrep-HA, referred as sNASP-Strep-HA above, wt and mutants was induced by treatment with 2 μg/ml Doxycycline (631311, Clontech) for 24–48 hours. HCT116 NASP-FKBP12^F36V (NASP-dTAG) were treated with 0.2% DMSO (67–68-5, Sigma) or 5 μM dTAG-13 (6605, Tocris) for the indicated times, to induce the degradation of endogenous NASP. […] 24 hours after seeding, cells were treated with either 0.2% DMSO or 5 μM dTAG-13 for 48 hours, and cell viability was quantified with CellTiter-Blue® Cell Viability Assay (G8080, Promega), according to the manufacturer's instructions. […]
Protein concentrations were measured using Pierce™ 660 nm Protein Assay Reagent (Thermo Scientific) or the Bradford protein assay (Bio-Rad). […] Western blots from three independent biological replicates were quantified using the software ImageJ, version 1.0.

[2] = test system: endogenous s- and t-NASP (NASP-FKBP12^F36V); assay: Depletion of endogenous NASP in NASP-dTAG cells (western blot, immunofluorescence); conditions: HCT116 NASP-dTAG, 5 μM dTAG-13, 48 h
Protocol: Unless stated otherwise cells were grown in DMEM with Glutamax (35050061, Gibco), 10% FBS (12389802, Hyclone) and 1% penicillin/streptomycin (15140122, Gibco) at 37°C with 5% CO2. HeLa S3 and HCT116 pLVX-TetOne-Puro cell lines were grown under Puromycin selection (1 μg/ml, P8833, Sigma). In Hela S3 and HCT116 pLVX-TetOne-Puro, the expression of sNASP-TwinStrep-HA, referred as sNASP-Strep-HA above, wt and mutants was induced by treatment with 2 μg/ml Doxycycline (631311, Clontech) for 24–48 hours. HCT116 NASP-FKBP12^F36V (NASP-dTAG) were treated with 0.2% DMSO (67–68-5, Sigma) or 5 μM dTAG-13 (6605, Tocris) for the indicated times, to induce the degradation of endogenous NASP. […] 24 hours after seeding, cells were treated with either 0.2% DMSO or 5 μM dTAG-13 for 48 hours, and cell viability was quantified with CellTiter-Blue® Cell Viability Assay (G8080, Promega), according to the manufacturer's instructions.
Protein concentrations were measured using Pierce™ 660 nm Protein Assay Reagent (Thermo Scientific) or the Bradford protein assay (Bio-Rad). […] Western blots from three independent biological replicates were quantified using the software ImageJ, version 1.0. […]

[3] = test system: HCT116 wt and NASP-dTAG cells; assay: Cell cycle distribution (high-content microscopy, EdU); conditions: 5 μM dTAG-13, 48 h; mean n=3; ns = P>0.05
Protocol: HCTT116 wt and NASP-dTAG cells were seeded at a density of 3000 cells per well in 96 well plates (6055300, Cell carrier) and treated with either dTAG-13 (5 μM, 48 hours) or DMSO (0.2%, 48 hours). Before fixation, newly replicated DNA was labelled with EdU (20 mins, 10 μM) at 37°C. Cells were washed in ice-cold PBS, fixed (4% paraformaldehyde, 15 mins, 4°C) and washes twice in ice cold PBS. EdU staining followed the Click-iT plus Alexa647-picolyl azide protocol (Thermo Scientific) and DNA was stained with DAPI (4′,6-diamidino-2-phenylindole). Images were acquired on an Olympus ScanR high-content microscope and analysed with ScanR analysis software. Cell cycle gates were defined using mean EdU and total DAPI intensities.

[4] = test system: HCT116 wt and NASP-dTAG cells; assay: Cell viability (CellTiter-Blue); conditions: 5 μM dTAG-13, 48 h; mean n=3; ns = P>0.05
Protocol: Unless stated otherwise cells were grown in DMEM with Glutamax (35050061, Gibco), 10% FBS (12389802, Hyclone) and 1% penicillin/streptomycin (15140122, Gibco) at 37°C with 5% CO2. HeLa S3 and HCT116 pLVX-TetOne-Puro cell lines were grown under Puromycin selection (1 μg/ml, P8833, Sigma). In Hela S3 and HCT116 pLVX-TetOne-Puro, the expression of sNASP-TwinStrep-HA, referred as sNASP-Strep-HA above, wt and mutants was induced by treatment with 2 μg/ml Doxycycline (631311, Clontech) for 24–48 hours. HCT116 NASP-FKBP12^F36V (NASP-dTAG) were treated with 0.2% DMSO (67–68-5, Sigma) or 5 μM dTAG-13 (6605, Tocris) for the indicated times, to induce the degradation of endogenous NASP. In the complementation experiments, HCT116 cells were simultaneously treated with 2 μg/ml Doxycycline and either 0.2% DMSO or 5 μM dTAG-13 for 48 hours, to ensure a synchronized degradation of the endogenous protein and expression of sNASP-Strep-HA wt or mutants. For cell viability experiments, HCT116 cells were seeded at low confluency in a 24 well plate. 24 hours after seeding, cells were treated with either 0.2% DMSO or 5 μM dTAG-13 for 48 hours, and cell viability was quantified with CellTiter-Blue® Cell Viability Assay (G8080, Promega), according to the manufacturer's instructions.

[5] = test system: endogenous s- and t-NASP, histone H3; assay: Co-immunoprecipitation of sNASP-FLAG-Myc from HeLa S3; conditions: HeLa S3, transient transfection
Protocol: Protein concentrations were measured using Pierce™ 660 nm Protein Assay Reagent (Thermo Scientific) or the Bradford protein assay (Bio-Rad). For immunoprecipitation, 2–3 mg of sNASP-FLAG-myc and sNASP-Strep-HA extracts were incubated for 3 hours at 4°C degrees with 50 μl of anti-Flag M2 (A2220, Sigma) or Anti-TwinStrep Mag-Strep beads (2–4090-002, Iba). After incubation, the beads were washed five times in ice-cold wash buffer (150 mM NaCl, 0.02% Nonidet P40, 50 mM Tris-HCl pH 7.6, 0.1 mM EDTA, 5% glycerol). Bound proteins were eluted with either Laemmli sample buffer 1X (LSB 4X: Tris-HCl (200 mM, pH 6.8), SDS 4%, glycerol (40%), DTT (100 mM)) or biotin elution buffer 1X (BXT buffer, 2–1042-025, Iba), respectively. Western blotting was performed as described previously ([11]). Western blots from three independent biological replicates were quantified using the software ImageJ, version 1.0.

| Molecule | Level of soluble histones (H3, H4, H4K5ac) [1] | Depletion of endogenous NASP [2] | Cell cycle distribution [3] | Cell viability relative to DMSO [4] | Pull down of endogenous s- and t-NASP [5] | Pull down of histone H3 [5] |
| --- | --- | --- | --- | --- | --- | --- |
| CC[C@H](C(=O)N1CCCC[C@H]1C(=O)O[C@H](CCc1ccc(OC)c(OC)c1)c1ccccc1OCC(=O)NCCCCCCOc1cccc2c1C(=O)N(C1CCC(=O)NC1=O)C2=O)c1cc(OC)c(OC)c(OC)c1 (some centres unmarked) [dTAG-13] | reduced the pool of soluble histone H3–H4 | efficient and stable depletion of endogenous s- and t-NASP isoforms | non-significant; also recorded: without dramatic effects on cell cycle progression and cell proliferation | non-significant; also recorded: without dramatic effects on cell cycle progression and cell proliferation | – | – |
| sNASP 6E mutant: sNASP-FLAG-Myc V265E I272E L282E V286E I300E L307E | – | – | – | – | impaired | efficiently pulled down histone H3 |
| sNASP wild type (wt): epitope-tagged sNASP wild type (FLAG-Myc or Strep-HA) | rescued the soluble histone pool | – | – | – | pulled down both endogenous s- and t- NASP | – |
